Assay results from paper PMC10928841, “Ames test study designs for nitrosamine mutagenicity testing: qualitative and quantitative analysis of key assay parameters” (Mutagenesis, 2023).
Like-named read-outs stand apart in the source and are kept apart here.

Assays:
Salmonella typhimurium = details: cited from earlier work
S. typhimurium TA1537 = experiment: Ames test, pre-incubation method, TA1537; details: S9 hamster, vehicle acetonitrile, up to 5000 µg/plate
E. coli WP2uvrA (pKM101) [1] = details: for increase in mutant frequency at the limit concentration: 5000 µg/plate
S. typhimurium TA98 = experiment: Ames test, pre-incubation method, TA98; details: vehicle acetonitrile, up to 5000 µg/plate
[2] = system: S. typhimurium and E. coli tester strains; experiment: Benchmark dose (BMD) modelling of positive Ames test dose-response data; assay type: cell-based, Salmonella typhimurium and Escherichia coli; details: BMR 100%; all positive combinations of vehicle, method, strain and S9
Description: Benchmark dose analyses were carried out using the freely available PROAST R-package (version 70.3) (http://www.proast.nl). Ames test dose–response data (with cytotoxic test concentrations removed) were analysed using the exponential model family recommended by EFSA for the assessment of continuous (geno)toxicity dose–response data [37]. Where combined analyses were used, dose–response relationships were analysed using the assay conditions discriminating the subgroups (i.e. sub-study) as a covariate. To prevent overfitting, more complex models with additional parameters were only accepted if the goodness-of-fit exceeded the critical value at P < .05. PROAST outputs designate potency (i.e. the benchmark dose (BMD)) and its two-sided, 90% confidence interval (i.e. the BMDL and BMDU) as the ‘Critical Effect Dose’ (i.e. yielding a CED, CEDL, and CEDU), respectively, for each level of the covariate. Using the combined-covariate BMD approach [38], the model parameters that required estimation for each subgroup and those that could be considered constant across subgroups were established for the combined dataset. In general, the combined analyses presented here assumed that parameters for the maximum response (parameter c), log-steepness (parameter d) were equal for all subgroups, while the background response (parameter a), potency (parameter b), and within-group variation (var) were tested for subgroup dependence [39]. Model fits were used to visually evaluate the validity of the assumption of conserved shape. […]
To further understand the impact of different test parameters on test outcomes, BMD-derived potency/sensitivity rankings [38] were generated from the dose–response relationships for NDMA and NDEA. […] Instead, the purpose is to quantitatively provide a means to compare the potency/sensitivity of different assay conditions, that is, bacterial strain, S9 source, vehicle, and plate/pre-incubation methods, to inform on optimal study designs for robust/sensitive mutagenicity calls. […]

CYP2E1 [3] = biological target: CYP2E1 (Rattus norvegicus, UniProt P05182); experiment: Effect of vehicle on CYP2E1 activity of rat liver S9 (chlorzoxazone 6-hydroxylation); details: induced rat liver S9; vehicle 7.7% (v/v); chlorzoxazone 10 µM; 30 min
CYP2E1 [4] = biological target: CYP2E1 (Mesocricetus auratus, UniProt P51581); experiment: Effect of vehicle on CYP2E1 activity of hamster liver S9 (chlorzoxazone 6-hydroxylation); details: vehicle 7.7% (v/v), chlorzoxazone 10 µM, 30 min; for effect on conversion of chlorzoxazone to 6-hydroxychlorzoxazone compared with water: induced hamster liver S9; for reduction of 6-hydroxychlorzoxazone formation compared with water: Aroclor-induced hamster liver S9
S. typhimurium TA1535 = experiment: Ames test, pre-incubation method, TA1535; details: hamster liver S9-mix, vehicle water, 5000 µg/plate
E. coli WP2uvrA (pKM101) [5] = experiment: Ames test, pre-incubation method, WP2uvrA (pKM101); details: for increase in mutant frequency compared with vehicle controls: 5000 µg/plate
rat = system: rat; design: method as in PMID 4230610; details: historical data; cited from earlier work
S. typhimurium TA100 = experiment: Ames test, pre-incubation method, TA100
[6] = rat liver S9-mix, vehicle methanol
[7] = plate incorporation, rat liver S9-mix, vehicle methanol, E. coli WP2uvrA (pKM101)
[8] = plate incorporation, rat liver S9-mix, vehicle water, E. coli WP2uvrA (pKM101)

Chain of CYP2E1 (Rattus norvegicus, UniProt P05182) (P05182 whole entry): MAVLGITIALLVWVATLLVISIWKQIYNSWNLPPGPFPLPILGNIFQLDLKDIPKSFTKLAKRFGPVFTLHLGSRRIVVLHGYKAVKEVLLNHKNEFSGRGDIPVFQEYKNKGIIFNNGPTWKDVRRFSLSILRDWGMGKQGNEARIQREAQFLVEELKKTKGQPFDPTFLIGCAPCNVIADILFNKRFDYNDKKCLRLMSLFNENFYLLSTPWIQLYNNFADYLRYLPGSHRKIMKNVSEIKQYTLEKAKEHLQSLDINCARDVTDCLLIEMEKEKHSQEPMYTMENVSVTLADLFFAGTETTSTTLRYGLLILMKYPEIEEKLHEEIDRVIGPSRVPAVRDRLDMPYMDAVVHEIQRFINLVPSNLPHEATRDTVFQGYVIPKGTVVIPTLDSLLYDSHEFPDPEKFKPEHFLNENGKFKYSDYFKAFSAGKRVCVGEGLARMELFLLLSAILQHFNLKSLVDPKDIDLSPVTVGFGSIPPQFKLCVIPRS
Chain of CYP2E1 (Mesocricetus auratus, UniProt P51581) (P51581 whole entry): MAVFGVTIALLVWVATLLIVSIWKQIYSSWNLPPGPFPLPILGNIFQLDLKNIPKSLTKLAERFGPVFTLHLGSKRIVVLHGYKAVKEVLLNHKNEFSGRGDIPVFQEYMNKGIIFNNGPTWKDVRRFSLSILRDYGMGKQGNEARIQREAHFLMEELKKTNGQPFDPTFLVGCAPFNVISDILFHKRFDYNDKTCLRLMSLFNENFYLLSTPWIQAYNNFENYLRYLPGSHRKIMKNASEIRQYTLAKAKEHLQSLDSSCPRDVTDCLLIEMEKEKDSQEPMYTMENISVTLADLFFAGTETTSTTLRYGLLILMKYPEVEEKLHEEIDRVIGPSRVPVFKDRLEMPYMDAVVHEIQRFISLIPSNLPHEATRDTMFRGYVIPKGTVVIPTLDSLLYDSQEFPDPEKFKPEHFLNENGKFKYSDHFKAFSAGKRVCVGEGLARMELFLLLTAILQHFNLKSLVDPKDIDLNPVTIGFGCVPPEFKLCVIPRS

## CCN(CC)N=O [NDEA, N-nitrosodiethylamine]
Salmonella typhimurium; not tested in the current study
  mutagenicity in the absence of metabolic activation: non-mutagenic
S. typhimurium TA1537
  Ames test strain TA1537: Toxic
E. coli WP2uvrA (pKM101) [1]
  Ames test strain WP2*: +
E. coli WP2uvrA (pKM101) [1]; plate incorporation, rat liver S9-mix, all three vehicles water, methanol or DMSO, E. coli WP2uvrA (pKM101)
  concentration giving concentration-dependent increases in mutant frequency: ≥ 1500 µg/plate
S. typhimurium TA98; S9 hamster
  Ames test strain TA98: Toxic
S. typhimurium TA98; S9 rat
  Ames test strain TA98: Toxic
[2]
  range in sensitivity/potency (BMD100 confidence intervals) across positive datasets: ~ 100 fold

## C[S+](C)[O-] [DMSO, dimethylsulfoxide]
CYP2E1 [3]
  effect on conversion of chlorzoxazone to 6-hydroxychlorzoxazone compared with water: inhibit
CYP2E1 [4]
  effect on conversion of chlorzoxazone to 6-hydroxychlorzoxazone compared with water: inhibit

## CO [Methanol, methanol]
CYP2E1 [3]
  effect on conversion of chlorzoxazone to 6-hydroxychlorzoxazone compared with water: negligible effect
CYP2E1 [4]
  reduction of 6-hydroxychlorzoxazone formation compared with water: ~ 50%

## CC#N [acetonitrile]
CYP2E1 [3]
  effect on conversion of chlorzoxazone to 6-hydroxychlorzoxazone compared with water: inhibit
CYP2E1 [4]
  effect on conversion of chlorzoxazone to 6-hydroxychlorzoxazone compared with water: inhibit

## CCN(C)N=O [NMEA, N-nitrosomethylethylamine]
S. typhimurium TA1535
  fold-increase at the limit concentration: 275 fold
E. coli WP2uvrA (pKM101) [5]; [6]
  concentration giving a positive response: 5000 µg/plate
Salmonella typhimurium; historical data
  Ames test (legacy result): negative
rat
  rodent cancer bioassay: positive
E. coli WP2uvrA (pKM101) [1]; [7]
  concentration giving an increase in revertant colonies compared with vehicle controls: ≥ 1500 µg/plate
  increase in mutant frequency at the limit concentration: 4.3 fold
E. coli WP2uvrA (pKM101) [1]; [8]
  concentration giving an increase in revertant colonies compared with vehicle controls: ≥ 2500 µg/plate
  increase in mutant frequency at the limit concentration: 2.7 fold
S. typhimurium TA100; hamster liver S9-mix, vehicle water, 5000 µg/plate
  fold-increase at the limit concentration: 32 fold
S. typhimurium TA100; [6]
  concentration giving a concentration-related increase in revertant colonies: ≥ 1500 µg/plate
[2]
  range in sensitivity/potency (BMD100 confidence intervals) across positive datasets: 1000 fold

## CC(C)=O [acetone]
CYP2E1 [3]
  effect on conversion of chlorzoxazone to 6-hydroxychlorzoxazone compared with water: negligible effect
CYP2E1 [4]
  reduction of 6-hydroxychlorzoxazone formation compared with water: ~ 75%

## CN(C)N=O [NDMA, N-Nitrosodimethylamine]
E. coli WP2uvrA (pKM101) [5]; rat liver S9, vehicle methanol
  increase in mutant frequency compared with vehicle controls: 2 fold
E. coli WP2uvrA (pKM101) [5]; rat liver S9, vehicle water
  increase in mutant frequency compared with vehicle controls: 2.6 fold
E. coli WP2uvrA (pKM101) [1]; [7]
  concentration giving an increase in revertant colonies compared with vehicle controls: 5000 µg/plate
E. coli WP2uvrA (pKM101) [1]; [8]
  concentration giving an increase in revertant colonies compared with vehicle controls: ≥ 1500 µg/plate
[2]
  range in sensitivity/potency (BMD100 confidence intervals) across positive datasets: ~ 1000 fold
